Experimental data published in patent publication US11492357B2, “Thieno[3,2-d]pyrimidine derivative compound having inhibitory activity for protein kinase” (Hanmi Pharm. Co., Ltd., priority 2017, dated 2022).
Structures can show the parent of a compound that is named as a salt.

Experiments:
[1] = system: SK-MEL-30 melanoma cells (N-RAS Q61K mutant); test: Inhibition of cell growth of N-RAS Q61K mutant SK-MEL-30 cells (SRB); type: cell-based; details: Homo sapiens, 72 hours incubation, SRB staining
Method: N-RAS^Q61K mutant SK-MEL-30 melanoma cell line (ACC-151) was obtained from DSMZ (Deutsche Sammlung von Mikroorganismen und Zellkulturen GmbH, Germany). SK-MEL30 cells express wildtype B-RAF and mutant N-RAS (Q61K). SK-MEL-30 cells were incubated in a RPMI medium supplemented with 10% FBS and 1% penicillin/streptomycin (Gibco BRL) under 37° C., 5% CO2 and 95% air. Cells were seeded in 96-well plates at a density of 5,000 cells/well, and cultured for 18 hours or more. Then cells were treated with 0.1-10 μM (1/10 serial dilution) of test compounds, and incubated for 72 hours.
To evaluate cell viabilities, SK-MEL-30 cell lines were fixed with 10% TCA (trichloroacetic acid), stained with SRB (sulforhodamine B), and the absorbance was measured at 540 nm. Then, GI50, i.e., the concentration of drug to cause 50% reduction in proliferation of cancer cells, was calculated therefrom. The growth rates of cancer cells were calculated by Equation 1 or 2. [(Ti−Tz)/(C−Tz)]×100 (for […]) Equation 1 [(Ti−Tz)/Tz]×100 (for Ti<Tz) Equation 2
In Equation 1 and 2, ‘Tz’ refers to the density of untreated cells, which is the absorbance in 0% cell growth groups. ‘C’ refers to the density of cells cultured by adding only medium, and ‘Ti’ refers to the density of cells treated with test compounds. […]

[2] = biological target: RAF1 (C-RAF) Y340D/Y341D (Homo sapiens (Human), UniProt P04049, Y340D/Y341D); test: RAF kinase inhibitory activity, Kinase Profiling Service; type: biochemical
Chain of RAF1 (C-RAF) Y340D/Y341D (P04049 whole entry Y340D/Y341D): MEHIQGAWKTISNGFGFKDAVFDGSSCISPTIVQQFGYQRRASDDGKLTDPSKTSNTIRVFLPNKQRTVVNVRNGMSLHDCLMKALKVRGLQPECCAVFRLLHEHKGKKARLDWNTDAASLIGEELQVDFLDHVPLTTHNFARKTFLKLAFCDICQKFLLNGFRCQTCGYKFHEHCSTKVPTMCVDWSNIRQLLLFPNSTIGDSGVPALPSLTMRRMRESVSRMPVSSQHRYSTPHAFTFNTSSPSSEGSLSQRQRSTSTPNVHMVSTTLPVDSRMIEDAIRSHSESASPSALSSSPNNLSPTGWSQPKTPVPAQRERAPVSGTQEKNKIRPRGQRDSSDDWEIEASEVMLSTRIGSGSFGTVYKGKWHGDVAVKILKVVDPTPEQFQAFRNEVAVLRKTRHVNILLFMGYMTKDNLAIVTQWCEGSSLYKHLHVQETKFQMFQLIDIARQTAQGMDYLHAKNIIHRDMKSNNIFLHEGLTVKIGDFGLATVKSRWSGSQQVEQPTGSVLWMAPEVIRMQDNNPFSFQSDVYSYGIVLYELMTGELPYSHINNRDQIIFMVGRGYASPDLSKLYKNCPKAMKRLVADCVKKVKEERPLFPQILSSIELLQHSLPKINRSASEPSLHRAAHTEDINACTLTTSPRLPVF
Method: (§1) The levels of enzymatic inhibition of the compound were calculated as percent inhibition at various concentrations. Based on percent inhibition, dose-response curves were plotted using GraphPad Prism software.

[3] = biological target: B-RAF V600E (Homo sapiens (Human), UniProt P15056, V600E); test: as above; type: biochemical
Chain of B-RAF V600E (P15056 whole entry V600E): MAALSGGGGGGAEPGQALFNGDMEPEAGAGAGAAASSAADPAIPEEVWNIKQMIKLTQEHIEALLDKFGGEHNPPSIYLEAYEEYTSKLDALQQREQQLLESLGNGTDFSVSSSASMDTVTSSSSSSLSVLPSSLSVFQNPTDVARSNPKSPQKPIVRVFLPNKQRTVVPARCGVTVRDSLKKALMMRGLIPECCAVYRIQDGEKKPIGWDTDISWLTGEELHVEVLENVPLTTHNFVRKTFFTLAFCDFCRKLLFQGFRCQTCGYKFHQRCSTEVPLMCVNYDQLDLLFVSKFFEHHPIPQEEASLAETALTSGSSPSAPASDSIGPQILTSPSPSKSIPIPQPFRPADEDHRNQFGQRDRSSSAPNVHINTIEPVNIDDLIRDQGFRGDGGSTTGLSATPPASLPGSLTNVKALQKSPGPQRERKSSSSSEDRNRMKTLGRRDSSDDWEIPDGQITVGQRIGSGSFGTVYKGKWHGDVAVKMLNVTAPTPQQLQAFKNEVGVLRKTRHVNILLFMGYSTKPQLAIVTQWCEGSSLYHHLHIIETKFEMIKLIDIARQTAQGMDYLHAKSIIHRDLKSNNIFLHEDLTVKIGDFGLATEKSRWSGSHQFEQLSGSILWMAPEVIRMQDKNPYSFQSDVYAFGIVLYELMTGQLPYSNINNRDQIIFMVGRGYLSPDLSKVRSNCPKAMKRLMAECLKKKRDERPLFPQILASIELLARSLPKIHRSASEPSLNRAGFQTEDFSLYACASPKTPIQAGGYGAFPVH
Method: as §1

[4] = biological target: B-RAF wild type (Homo sapiens (Human), UniProt P15056); test: as above; type: biochemical; details: read-out: B-RAF WT (IC50)
Chain of B-RAF wild type (P15056 whole entry): as the sequence (P15056 whole entry V600E) above, with E600V counted along it
Method: as §1

GI50 [1] | IC50 [2] | IC50 [3] | IC50 [4] | Structure (SMILES)
> 10000 nM |  |  |  | CCCS(=O)(=O)Nc1ccc(F)c(C(=O)c2c[nH]c3ncc(-c4ccc(Cl)cc4)cc23)c1F [Control, vemurafenib, reference compound]
231 nM | 21 nM | 30 nM | 392 nM | Cc1ccc2c(Nc3ccc(O)c(Cl)c3F)nccc2c1NC(=O)c1csc2c(N)ncnc12 [Compound•2HCl, 4-amino-N-(1-((3-chloro-2-fluoro-4-hydroxyphenyl)amino)-6-methylisoquinolin-5-yl)thieno[3,2-d]pyrimidine-7-carboxamide dihydrochloride]
